Results on 23 molecules are retold here after PubChem BioAssay AID330 (DTP/NCI, 2004).

Values joined by “and” are separate entries in the source; they are usually repeats but may differ in a detail not shown here. Identical values can stand only once. Inconclusive results and toxic doses are left out.

For this test, the system named is P388 leukemia ip, CD2F1 mice, survival T/C. Kind of test: NCI In Vivo Anticancer Drug Screen. Data for tumor model P388 Leukemia (intraperitoneal) in CD2F1 (CDF1) mice. To be noted: endpoint: median survival time, higher = longer survival. The method, boiled down:
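Mice carrying the transplanted tumor received test compound or vehicle. Survival was recorded in each group, and the value is the treated-group measurement divided by that of the vehicle-treated control group.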

The mark [1] stands for this setting: dose: 50.0 mg/kg/injection, schedule: Q01DX005 (ip), vehicle: saline with Tween-80.
Setting [2] is: dose: 100.0 mg/kg/injection, schedule: Q01DX005 (ip), vehicle: saline with Tween-80.
[3] abbreviates: dose: 200.0 mg/kg/injection, schedule: Q01DX005 (ip), vehicle: saline with Tween-80.
[4] abbreviates: dose: 50.0 mg/kg/injection, schedule: Q01DX009 (ip), vehicle: saline.
[5] abbreviates: dose: 100.0 mg/kg/injection, schedule: Q01DX009 (ip), vehicle: saline.
[6] abbreviates: dose: 200.0 mg/kg/injection, schedule: Q01DX009 (ip), vehicle: saline.
Setting [7] is: dose: 60.0 mg/kg/injection, schedule: Q01DX005 (ip), vehicle: Klucel (hydroxypropylcellulose) (HPC).
The mark [8] stands for this setting: dose: 120.0 mg/kg/injection, schedule: Q01DX005 (ip), vehicle: Klucel (hydroxypropylcellulose) (HPC).
Where [9] appears, read: dose: 240.0 mg/kg/injection, schedule: Q01DX005 (ip), vehicle: Klucel (hydroxypropylcellulose) (HPC).
[10] abbreviates: dose: 50.0 mg/kg/injection, schedule: Q01DX009 (ip), vehicle: Klucel (hydroxypropylcellulose) (HPC).
Where [11] appears, read: dose: 100.0 mg/kg/injection, schedule: Q01DX009 (ip), vehicle: Klucel (hydroxypropylcellulose) (HPC).
Where [12] appears, read: dose: 200.0 mg/kg/injection, schedule: Q01DX009 (ip), vehicle: Klucel (hydroxypropylcellulose) (HPC).
Setting [13] is: dose: 60.0 mg/kg/injection, schedule: Q01DX005 (ip), vehicle: saline with Tween-80.
Setting [14] is: dose: 120.0 mg/kg/injection, schedule: Q01DX005 (ip), vehicle: saline with Tween-80.
Where [15] appears, read: dose: 240.0 mg/kg/injection, schedule: Q01DX005 (ip), vehicle: saline with Tween-80.

For the molecule `Cc1nc(C(=O)O)c(C)c(=O)[nH]1`, the T/C runs as follows: (dose: 0.78 mg/kg/injection, schedule: Q01DX009 (ip), vehicle: water) 96 % of control; (dose: 0.78 mg/kg/injection, schedule: Q04DX003 (ip), vehicle: water) 91 % of control; (dose: 1.56 mg/kg/injection, schedule: Q01DX009 (ip), vehicle: water) 96 % of control; (dose: 1.56 mg/kg/injection, schedule: Q04DX003 (ip), vehicle: water) 91 % of control; (dose: 3.13 mg/kg/injection, schedule: Q01DX009 (ip), vehicle: water) 112 % of control; (dose: 3.13 mg/kg/injection, schedule: Q04DX003 (ip), vehicle: water) 98 % of control. Also, the T/C (dose: 6.25 mg/kg/injection, schedule: Q01DX009 (ip), vehicle: water) is 119 % of control; the T/C (dose: 6.25 mg/kg/injection, schedule: Q04DX003 (ip), vehicle: water) was 100 % of control; the T/C (dose: 12.5 mg/kg/injection, schedule: Q01DX009 (ip), vehicle: water) was 114 % of control; the T/C (dose: 12.5 mg/kg/injection, schedule: Q04DX003 (ip), vehicle: water) was 101 % of control.
Turning to `CCN(CC)CCNC(=O)c1cc(Cl)c(C(=O)NO)cc1OC`, the T/C was 87 % of control (dose: 6.25 mg/kg/injection, schedule: Q01DX005 (ip), vehicle: Klucel (hydroxypropylcellulose) (HPC)); 95 % of control (dose: 12.5 mg/kg/injection, schedule: Q01DX005 (ip), vehicle: Klucel (hydroxypropylcellulose) (HPC)); 104 % of control (dose: 25.0 mg/kg/injection, schedule: Q01DX005 (ip), vehicle: Klucel (hydroxypropylcellulose) (HPC)).
For `O=S(=O)(C1CC1c1ccccc1)C1CC1c1ccc(F)cc1` (stereo unspecified), the T/C reads like this: under setting [1], 100 % of control; under setting [2], 95 % of control; under setting [3], 101 % of control.
In the case of `Oc1ccccc1-c1cc(-c2ccccc2)nc(NCCCCCCCCNc2nc(-c3ccccc3)cc(-c3ccccc3O)n2)n1`, the T/C by setting is: (dose: 100.0 mg/kg/injection, schedule: Q04DX003 (ip), vehicle: saline) 92 % of control; (dose: 200.0 mg/kg/injection, schedule: Q04DX003 (ip), vehicle: saline) 94 % of control; (dose: 400.0 mg/kg/injection, schedule: Q04DX003 (ip), vehicle: saline) 88 % of control.
Regarding `C=C(c1ccc(OC)cc1)c1cc(C(C)(C)C)c(O)c(C(C)(C)C)c1`, the T/C is, setting by setting: (dose: 50.0 mg/kg/injection, schedule: Q01DX005 (ip), vehicle: saline + Tween-80 + alcohol) 101 % of control; (dose: 100.0 mg/kg/injection, schedule: Q01DX005 (ip), vehicle: saline + Tween-80 + alcohol) 97 % of control; (dose: 200.0 mg/kg/injection, schedule: Q01DX005 (ip), vehicle: saline + Tween-80 + alcohol) 100 % of control.
Take `ClC(Cl)(Cl)C1=NC2=C(Br)C=C(Br)C3=NC(C(Br)(Br)Br)=NC(=N1)N32`: the T/C was 105 % of control (dose: 60.0 mg/kg/injection, schedule: Q01DX005 (ip), vehicle: Klucel + Tween-80) and 110 % of control (dose: 120.0 mg/kg/injection, schedule: Q01DX005 (ip), vehicle: Klucel + Tween-80).
Turning to `O=C(NC1CCC1)OCc1c(COC(=O)NC2CCC2)c(-c2ccc(Cl)c(Cl)c2)n2c1CCC2`, the T/C is 117 % of control (dose: 3.13 mg/kg/injection, schedule: Q01DX009 (ip), vehicle: distilled water + Tween-80); 155 % of control (dose: 12.5 mg/kg/injection, schedule: Q01DX009 (ip), vehicle: distilled water + Tween-80); 173 % of control and 194 % of control (dose: 25.0 mg/kg/injection, schedule: Q01DX009 (ip), vehicle: distilled water + Tween-80).
Turning to `CCCCN(CCCC)CC(O)c1ccc(OCc2ccccc2)c2ccccc12` (stereo unspecified), the T/C is, setting by setting: under setting [1], 102 % of control; under setting [2], 102 % of control; under setting [3], 102 % of control.
As for `C=C(C)C(=O)OCC1CO1` (stereo unspecified), the T/C (dose: 50.0 mg/kg/injection, schedule: Q01DX009 (ip), vehicle: water) is 100 % of control; the T/C (dose: 100.0 mg/kg/injection, schedule: Q01DX009 (ip), vehicle: water) is 108 % of control; the T/C (dose: 200.0 mg/kg/injection, schedule: Q01DX009 (ip), vehicle: water) is 120 % of control.
Consider `O=[N+]([O-])c1cc2c(cc1Cl)C1C(C3C2C2(Cl)C(Cl)=C(Cl)C3(Cl)C2(Cl)Cl)C2(Cl)C(Cl)=C(Cl)C1(Cl)C2(Cl)Cl` (stereo unspecified), for which the T/C under setting [4] was 101 % of control, the T/C under setting [5] was 109 % of control and the T/C under setting [6] is 106 % of control.
`O=C1CSc2ccccc2-n2cccc21`: the T/C is, setting by setting: under setting [7], 89 % of control; under setting [8], 109 % of control; under setting [9], 101 % of control.
For the molecule `COC(=O)[C@H]1O[C@H]1c1ccccn1`, the T/C is, setting by setting: (dose: 25.0 mg/kg/injection, schedule: Q01DX005 (ip), vehicle: distilled water + alcohol) 103 % of control; (dose: 50.0 mg/kg/injection, schedule: Q01DX005 (ip), vehicle: distilled water + alcohol) 106 % of control; (dose: 100.0 mg/kg/injection, schedule: Q01DX005 (ip), vehicle: distilled water + alcohol) 99 % of control; (dose: 200.0 mg/kg/injection, schedule: Q01DX005 (ip), vehicle: distilled water + alcohol) 107 % of control.
Consider `O=c1[nH]c2cc([N+](=O)[O-])ccc2o1`, for which the T/C is 102 % of control under setting [10], 105 % of control under setting [11] and 105 % of control under setting [12].
Turning to `O=CNNC(=O)C(Cl)Cl`, the T/C by setting is: under setting [10], 107 % of control; under setting [11], 107 % of control; under setting [12], 112 % of control.
With `C1CNCCSCCCSCCNC1`, the T/C (dose: 25.0 mg/kg/injection, schedule: Q01DX009 (ip), vehicle: saline) is 100 % of control; the T/C under setting [4] is 98 % of control; the T/C under setting [5] was 89 % of control; the T/C under setting [6] is 87 % of control.
On to `CCOC(=O)NC(=O)NC(=O)OCC`, for which the T/C by setting is: (dose: 100.0 mg/kg/injection, schedule: Q04DX003 (ip), vehicle: saline sonified) 100 % of control; (dose: 200.0 mg/kg/injection, schedule: Q04DX003 (ip), vehicle: saline sonified) 100 % of control; (dose: 400.0 mg/kg/injection, schedule: Q04DX003 (ip), vehicle: saline sonified) 100 % of control.
Turning to `COc1cc2c(cc1OC)C(Cc1cccs1)=NCC2`, the T/C was 100 % of control (dose: 50.0 mg/kg/injection, schedule: Q01DX005 (ip), vehicle: Klucel (hydroxypropylcellulose) (HPC)) and 94 % of control (dose: 100.0 mg/kg/injection, schedule: Q01DX005 (ip), vehicle: Klucel (hydroxypropylcellulose) (HPC)).
In the case of `O=c1ccn2c(=O)n1CCCCn1cnc3ncnc(c31)SCCC2`, the T/C runs as follows: (dose: 50.0 mg/kg/injection, schedule: Q01DX001 (ip), vehicle: Klucel (hydroxypropylcellulose) (HPC)) 94 % of control; (dose: 100.0 mg/kg/injection, schedule: Q01DX001 (ip), vehicle: Klucel (hydroxypropylcellulose) (HPC)) 86 % of control; (dose: 200.0 mg/kg/injection, schedule: Q01DX001 (ip), vehicle: Klucel (hydroxypropylcellulose) (HPC)) 90 % of control; (dose: 400.0 mg/kg/injection, schedule: Q01DX001 (ip), vehicle: Klucel (hydroxypropylcellulose) (HPC)) 90 % of control.
Regarding `OCC1CCC(O)C=C2CCCC21` (stereo unspecified), the T/C is 94 % of control under setting [7], 103 % of control under setting [8] and 105 % of control under setting [9].
`O=C1NC(O)c2ccccc2O1` (stereo unspecified): the T/C is, setting by setting: under setting [4], 106 % of control; under setting [5], 123 % of control.
With `Brc1cccc2c(SCCCCCCSc3c4ccccc4nc4c(Br)cccc34)c3ccccc3nc12`, the T/C by setting is: under setting [7], 93 % of control; under setting [8], 92 % of control; under setting [9], 93 % of control.
On to `N#CC1=C(Nc2ccccc2Cl)SC(c2ccccc2O)NC1=O` (stereo unspecified), for which the T/C by setting is: under setting [13], 103 % of control; under setting [14], 102 % of control; under setting [15], 96 % of control.
Regarding `CC(O)C(C)(C)S(=O)(=O)CCCc1ccccc1` (stereo unspecified), the T/C by setting is: under setting [13], 107 % of control; under setting [14], 107 % of control; under setting [15], 108 % of control.
